{
  "source": "patent US20210077382A1",
  "about": "“COMPOSITIONS, DEVICES, AND METHODS FOR THE TREATMENT OF OPIOID-RECEPTOR-MEDIATED CONDITIONS” (Opiant Phamaceuticals, Inc., priority 2016, published 2021)",
  "key": {"[1]": {"conditions": "same conditions as naltrexone; cited from earlier work"}, "[2]": {"assay": "Clinical pharmacokinetic crossover study of IN, IM and oral naltrexone; plasma naltrexone and 6β-naltrexol by LC-MS/MS", "conditions": "4 mg IN; 5 minutes postdose", "source_text": "Study Goals. […] Secondary endpoints included adverse events (AEs), vital signs (heart rate, sitting blood pressure, and respiration rate), electrocardiogram (ECG), clinical laboratory changes and nasal irritation using the nasal irritation scale.\nStudy design. […] This was an in-patient open-label, crossover study involving approximately 14 healthy volunteers. […] Subjects stayed in the in-patient facility for 13 days to complete the entire study. Subjects were called 3 to 5 days after discharge to inquire concerning AEs and concomitant medications since discharge. Informed consent was obtained from all subjects, and all were screened for eligibility to participate in the study, including medical history, physical examination, clinical chemistry, coagulation markers, hematology, infectious disease serology, urinalysis, urine drug and alcohol toxicology screen, vital signs and ECG.\nOn days of study drug administration, a 12-lead ECG was performed approximately 1 hour prior to dosing and at approximately 1 and 4 hours post-dose. Vital signs were measured pre-dose and about 1 and 4 hours post-dose.\nStudy Drugs and Dosing. […] The IN (40 mg/mL) formulations were made by the staff pharmacist at Vince & Associates; the vehicle for the IN formulations was sterile water for injection. The IM formulation (2 mg/mL) was made by the staff pharmacist at Vince & Associates; the vehicle was sterile saline for injection.\nSubjects stayed in the in-patient facility for 13 days to complete the entire study and were discharged 2 days after the fourth dose.\nPK Assessments. […] Plasma was separated from whole blood and stored frozen at […] until assayed.\nAnalysis. […] Dose-adjusted values for AUCs and Cmax were calculated. The relative extent of IN and PO absorption (IN and PO versus IM) will be estimated from the dose-corrected AUCs."}, "[3]": {"assay": "Safety assessments (adverse events, vital signs, ECG, nasal irritation) in the clinical study", "type": "in vivo, human", "method": "On dosing days, the order of assessments was ECG, vital signs, then PK blood collection when scheduled at the same nominal times. The target time of the PK blood collection was considered the most critical and if the collection was more than ±1 minute from the scheduled time for the first 60 minutes of collections or more than ±5 minutes for the scheduled time points thereafter, this was considered a protocol deviation. ECG and vital signs were collected within the 10-minute period before the nominal time of blood collections. At screening, admission, and discharge, ECG, and vital signs were checked once per day. […] Clinical laboratory measurements were repeated after the last PK blood draw prior to clinic discharge. AEs were assessed by spontaneous reports by subjects, by examination of the nasal mucosa, by measuring vital signs, ECG, and clinical laboratory parameters.\nSafety Assessments. […] ECG and vital signs were performed within the 10-minute period before the nominal time for post-dose blood collections. Adverse events (AEs) were recorded from the start of study drug administration until clinic discharge."}, "[4]": {"conditions": "reported to be as low as; Gonzalez and Brogden 1988; cited from earlier work"}, "[5]": {"conditions": "intranasal formulation with […] Intravail; cited from earlier work"}},
  "data": [
    {"smiles": "C=C1CC[C@@]2(O)[C@H]3Cc4ccc(O)c5c4[C@@]2(CCN3CC2CC2)[C@H]1O5", "note": "[nalmefene, 17-cyclopropylmethyl-4,5α-epoxy-6-methylenemorphinan-3,14-diol]", "values": [
      {"measurement": "Change of AUC when an alkylsaccharide is added to the intranasal formulation", "setting": "[1]", "value": "do not have increased AUC"}
    ]},
    {"smiles": "O=C1CC[C@@]2(O)[C@H]3Cc4ccc(O)c5c4[C@@]2(CCN3CC2CC2)[C@H]1O5", "note": "[naltrexone, 17-(cyclopropylmethyl)-4,5a-epoxy-3,14-dihydroxymorphinan-6-one]", "values": [
      {"measurement": "Difference of mean naltrexone concentrations with and without Intravail", "setting": "[2]", "value": 8, "unit": "fold"},
      {"measurement": "Subjects with dizziness (most frequent AE regardless of severity or attribution)", "setting": "[3]; 5 subjects of 14", "value": 36, "unit": "%"},
      {"measurement": "Subjects with AEs of the Nervous System Disorders SOC (most frequent AEs)", "setting": "[3]; 7 subjects of 14", "value": 50, "unit": "%"},
      {"measurement": "Severe AEs", "setting": "[3]; all dosing periods", "value": "No severe AEs were observed"},
      {"measurement": "Moderate AEs", "setting": "[3]; dizziness after the first dose (4 mg IN), considered related to the study agent", "value": "one"},
      {"measurement": "Subjects discontinued from the study due to AEs", "setting": "[3]; hypertension, syncope, out-of-range pre-dose vital signs", "value": "Three"},
      {"measurement": "Treatment-related unexpected AE", "setting": "[3]; mild syncope after the Day 1 dose (4 mg IN)", "value": "one"},
      {"measurement": "Subjects who experienced at least one AE", "setting": "[3]; safety population, 10 of 14 subjects, any dosing period, any relationship to drug", "value": 71, "unit": "%"},
      {"measurement": "Subjects who experienced unexpected AEs", "setting": "[3]; two UAEs considered unrelated to the study agent", "value": "Three"},
      {"measurement": "Oral bioavailability", "setting": "[4]", "value": 5, "unit": "%"}
    ]},
    {"smiles": "CNS(=O)(=O)Cc1ccc2[nH]cc(CCN(C)C)c2c1", "note": "[sumatriptan]", "values": [
      {"measurement": "Increase of maximum plasma concentration in comparison to Imitrex nasal spray", "setting": "[5]", "value": "almost four-fold"},
      {"measurement": "Increase of total exposure (AUC)", "setting": "[5]", "value": 32, "unit": "%"},
      {"measurement": "Tmax", "setting": "[5]", "value": "8 to 10", "unit": "min"}
    ]}
  ]
}
